Assay results: patent publication US8697700B2, “Piperazinone-substituted tetrahydro-carboline MCH-1 antagonists, methods of making, and uses thereof” (Albany Molecular Research, Inc., priority 2010, dated 2014)
Counter-ions that a name gives are not always drawn.

How the values were obtained:
human MCH-1 receptor = molecular target: T1, human MCH-1 receptor (Homo sapiens, UniProt Q99705); assay: Binding assay for human MCH-1 receptor (radioligand displacement); settings: membranes from CHO-K1 cells expressing human MCH-1 receptor; 1.4 nM [3H]-labeled compound; 60 min at 25° C.; Ki from Cheng Prusoff equation; read-out: MCH1 Ki
T1 construct: purchased Euroscreen Batch 1138
Procedure: Evaluation of the affinity of compounds for the human MCH-1 receptor was accomplished using 4-(3,4,5-tritritiumbenzyloxy)-1-(1-(2-(pyrrolidin-1-yl)ethyl)-1H-indazol-5-yl)pyridin-2(1H)-one and membranes prepared from stable CHO-K1 cells expressing the human MCH-1 receptor obtained from Euroscreen (Batch 1138). Cell membrane homogenates (8.92 μg protein) were incubated for 60 min at 25° C. with 1.4 nM of the [^3H]-labeled compound in the absence or presence of the test compound in 50 mM Tris-HCl buffer, pH 7.4. Nonspecific binding was determined in the presence of 50 μM 1-(5-(4-cyanophenyl)bicyclo[3.1.0]hexan-2-yl)-3-(4-fluoro-3-(trifluoromethyl)phenyl)-1-(3-(4-methylpiperazin-1-yl)propyl)urea. Following incubation, the samples were filtered rapidly under vacuum through Skatron 11731 filters, pre-soaked in 0.5% polyethylenimine, and washed with ice-cold 50 mM Tris-HCl buffer, pH 7.4, (wash setting 9,9,0) using a Skatron cell harvester. The filters were counted for radioactivity in a liquid scintillation counter (Tri-Carb 2100TR, Packard) using a scintillation cocktail (Ultima Gold MV, Perkin Elmer).
The results are expressed as a percent inhibition of the control radioligand specific binding. The IC50 value (concentration causing a half-maximal inhibition of control specific binding) and Hill coefficient (nH) were determined by non-linear regression analysis of the competition curve using Hill equation curve fitting. The inhibition constant (Ki) was calculated from the Cheng Prusoff equation: (Ki=IC50/(1+(L/KD)), where L=concentration of radioligand in the assay, and KD=affinity of the radioligand for the receptor.

T1 sequence (Q99705 whole entry): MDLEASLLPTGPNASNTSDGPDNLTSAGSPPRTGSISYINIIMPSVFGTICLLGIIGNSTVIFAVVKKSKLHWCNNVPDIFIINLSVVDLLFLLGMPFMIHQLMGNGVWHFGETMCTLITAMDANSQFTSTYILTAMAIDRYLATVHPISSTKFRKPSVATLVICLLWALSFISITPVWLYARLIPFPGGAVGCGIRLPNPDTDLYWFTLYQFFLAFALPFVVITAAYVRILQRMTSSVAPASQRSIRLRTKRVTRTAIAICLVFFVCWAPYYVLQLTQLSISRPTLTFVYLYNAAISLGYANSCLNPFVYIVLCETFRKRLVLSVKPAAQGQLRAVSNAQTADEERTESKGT

SMILES | Ki (human MCH-1 receptor) | melting point
CC(=O)N1Cc2c(n(C)c3cc(N4CCN(CCc5ccc(Cl)cc5)CC4=O)ccc23)CC1C (single isomer, unassigned; enantiomer a) [Example 18, 1-(2-Acetyl-3,5-dimethyl-2,3,4,5-tetrahydro-1H-pyrido[4,3-b]indol-7-yl)-4-(4-chlorophenethyl)piperazin-2-one (Enantiomer A)] | 0.049 µM | 
Cn1c2c(c3ccc(N4CCN(CCc5ccccc5)CC4=O)cc31)CCNC2 [Example 2, 1-(9-Methyl-2,3,4,9-tetrahydro-1H-pyrido[3,4-b]indol-7-yl)-4-phenethylpiperazin-2-one hydrochloride] | 0.026 µM | 
Cn1c2c(c3ccc(N4CCN(CCc5ccccn5)CC4=O)cc31)CCNC2 [Example 3, 1-(9-Methyl-2,3,4,9-tetrahydro-1H-pyrido[3,4-b]indol-7-yl)-4-(2-(pyridin-2-yl)ethyl)piperazin-2-one dihydrochloride] | 0.043 µM | 
CN1CCc2c(n(C)c3cc(N4CCN(CCc5ccccc5)CC4=O)ccc23)C1 [Example 4, 1-(2,9-Dimethyl-2,3,4,9-tetrahydro-1H-pyrido[3,4-b]indol-7-yl)-4-phenethylpiperazin-2-one dihydrochloride] | 0.021 µM | 
Cn1c2c(c3ccc(N4CCN(c5ccc(C(F)(F)F)cn5)CC4=O)cc31)CNCC2 [Example 5, 1-(5-Methyl-2,3,4,5-tetrahydro-1H-pyrido[4,3-b]indol-7-yl)-4-(5-(trifluoromethyl)pyridin-2-yl)piperazin-2-one dihydrochloride] | 0.534 µM | 
Cn1c2c(c3ccc(N4CCN(CCc5ccccn5)CC4=O)cc31)CNCC2 [Example 8, 1-(5-Methyl-2,3,4,5-tetrahydro-1H-pyrido[4,3-b]indol-7-yl)-4-(2-(pyridin-2-yl)ethyl)piperazin-2-one dihydrochloride] | 0.123 µM | 
O=C1CN(CCc2ccccc2)CCN1c1ccc2c3c([nH]c2c1)CCNC3 [Example 9, 4-Phenethyl-1-(2,3,4,5-tetrahydro-1H-pyrido[4,3-b]indol-7-yl)piperazin-2-one dihydrochloride] | 0.017 µM | 
CC(=O)N1CCc2c(c3ccc(N4CCN(CCc5ccccc5)CC4=O)cc3n2C)C1 [Example 10, 1-(2-Acetyl-5-methyl-2,3,4,5-tetrahydro-1H-pyrido[4,3-b]indol-7-yl)-4-phenethylpiperazin-2-one] | 0.057 µM | 
Cn1c2c(c3ccc(N4CCN(CCc5ccc(F)cc5)CC4=O)cc31)C(C)(C)NCC2 [Example 16, 4-(4-Fluorophenethyl)-1-(1,1,5-trimethyl-2,3,4,5-tetrahydro-1H-pyrido[4,3-b]indol-7-yl)piperazin-2-one dihydrochloride] | 0.017 µM | 

The next compounds have a lower Ki (human MCH-1 receptor) than those just listed; values first:

Ki (human MCH-1 receptor) | melting point | SMILES
0.011 µM | 295 to 300 °C | CC1Cc2c(c3ccc(N4CCN(CCc5ccc(F)cc5)CC4=O)cc3n2C)CN1.Cl (single isomer, unassigned; enantiomer a) [Example 15, 1-(3,5-Dimethyl-2,3,4,5-tetrahydro-1H-pyrido[4,3-b]indol-7-yl)-4-(4-fluorophenethyl)piperazin-2-one hydrochloride (Enantiomer A)]
0.0076 µM |  | CC1Cc2c(c3ccc(N4CCN(CCc5ccc(Cl)cc5)CC4=O)cc3n2C)CN1 (single isomer, unassigned; enantiomer a) [Example 17, 4-(4-Chlorophenethyl)-1-(3,5-dimethyl-2,3,4,5-tetrahydro-1H-pyrido[4,3-b]indol-7-yl)piperazin-2-one hydrochloride (Enantiomer A)]
0.011 µM |  | Cn1c2c(c3ccc(N4CCN(CCc5ccccc5)CC4=O)cc31)CNCC2 [Example 6, 1-(5-Methyl-2,3,4,5-tetrahydro-1H-pyrido[4,3-b]indol-7-yl)-4-phenethylpiperazin-2-one dihydrochloride]
0.012 µM |  | CN1CCc2c(c3ccc(N4CCN(CCc5ccccc5)CC4=O)cc3n2C)C1 [Example 7, 1-(2,5-Dimethyl-2,3,4,5-tetrahydro-1H-pyrido[4,3-b]indol-7-yl)-4-phenethylpiperazin-2-one hydrochloride]
0.007 µM |  | Cn1c2c(c3ccc(N4CCN(CCc5ccc(F)cc5)CC4=O)cc31)CNCC2 [Example 11, 4-(4-Fluorophenethyl)-1-(5-methyl-2,3,4,5-tetrahydro-1H-pyrido[4,3-b]indol-7-yl)piperazin-2-one dihydrochloride]
0.0097 µM | 280 to 285 °C | CC1Cc2c(c3ccc(N4CCN(CCc5ccc(F)cc5)CC4=O)cc3n2C)CN1.Cl (centres unmarked) [Example 12, 1-(3,5-Dimethyl-2,3,4,5-tetrahydro-1H-pyrido[4,3-b]indol-7-yl)-4-(4-fluorophenethyl)piperazin-2-one hydrochloride]
0.0053 µM | 294 to 300 °C | CC1Cc2c(c3ccc(N4CCN(CCc5ccc(Cl)cc5)CC4=O)cc3n2C)CN1.Cl (centres unmarked) [Example 13, 4-(4-Chlorophenethyl)-1-(3,5-dimethyl-2,3,4,5-tetrahydro-1H-pyrido[4,3-b]indol-7-yl)piperazin-2-one hydrochloride]
0.0058 µM |  | Cn1c2c(c3ccc(N4CCN(CCc5ccc(Cl)cc5)CC4=O)cc31)CNCC2 [Example 14, 4-(4-Chlorophenethyl)-1-(5-methyl-2,3,4,5-tetrahydro-1H-pyrido[4,3-b]indol-7-yl)piperazin-2-one dihydrochloride]
